Reference: patent publication US10202361B2, “Pyridazinones as herbicides” (E I DU PONT DE NEMOURS AND COMPANY, priority 2014, dated 2019)

Tests used:
Assay in all cases: Test D pre-/postemergence controlled growth environment herbicide test
Format in all cases: in vivo
Details in all cases: scale 0 to 100
[1] = tested on: barley, spring (spring barley, Hordeum vulgare)
Procedure, shortened: (§1)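 Preemergence: seeds sown in silt loam soil and sprayed with test chemicals in a non-phytotoxic solvent mixture containing surfactant. Postemergence: plants grown in peat/vermiculite planting medium and sprayed at 2 to 18 cm (1- to 4-leaf stage). Visual rating versus controls after 14 to 21 d, 0 (no effect) to 100 (complete control).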

[2] = tested on: buckwheat, wild (wild buckwheat, Polygonum convolvulus)
Procedure, shortened: as §1

[3] = tested on: chamomile (scentless chamomile, Matricaria inodora)
Procedure, shortened: as §1

[4] = tested on: downy bromegrass (Bromus tectorum)
Procedure, shortened: as §1

[5] = tested on: field violet (Viola arvensis)
Procedure, shortened: as §1

[6] = tested on: galium (catchweed bedstraw, Galium aparine)
Procedure, shortened: as §1

[7] = tested on: mustard, wild (wild mustard, Sinapis arvensis)
Procedure, shortened: as §1

[8] = tested on: pigweed (Amaranthus retroflexus)
Procedure, shortened: as §1

[9] = tested on: wheat, spring (spring wheat, Triticum aestivum)
Procedure, shortened: as §1

[10] = tested on: wheat, winter (winter wheat, Triticum aestivum)
Procedure, shortened: as §1

[11] = tested on: windgrass (Apera spica-venti)
Procedure, shortened: as §1

Q: Which results are given for `Cc1cc(=O)n(-c2ccc(F)cc2)nc1Oc1ccnc(C(F)(F)F)c1` [Compound 14, 2-(4-fluorophenyl)-5-methyl-6-[[2-(trifluoromethyl)-4-pyridinyl]oxy]-3 (2H)-pyridazinone]?
A: Plant response rating ([1]; Postemergence, 16 g ai/ha): 5; Plant response rating ([1]; Postemergence, 31 g ai/ha): 10; Plant response rating ([1]; Postemergence, 62 g ai/ha): 15; Plant response rating ([1]; Postemergence, 125 g ai/ha): 20; Plant response rating ([1]; Postemergence, 250 g ai/ha): 20; Plant response rating ([1]; Preemergence, 16 g ai/ha): 5; Plant response rating ([1]; Preemergence, 31 g ai/ha): 10; Plant response rating ([1]; Preemergence, 62 g ai/ha): 5; Plant response rating ([1]; Preemergence, 125 g ai/ha): 15; Plant response rating ([1]; Preemergence, 250 g ai/ha): 5; Plant response rating ([2]; Postemergence, 16 g ai/ha): 55; Plant response rating ([2]; Postemergence, 31 g ai/ha): 55; Plant response rating ([2]; Postemergence, 62 g ai/ha): 75; Plant response rating ([2]; Postemergence, 125 g ai/ha): 70; Plant response rating ([2]; Postemergence, 250 g ai/ha): 70; Plant response rating ([2]; Preemergence, 16 g ai/ha): 15; Plant response rating ([2]; Preemergence, 31 g ai/ha): 15; Plant response rating ([2]; Preemergence, 62 g ai/ha): 25; Plant response rating ([2]; Preemergence, 125 g ai/ha): 25; Plant response rating ([2]; Preemergence, 250 g ai/ha): 100; Plant response rating ([3]; Postemergence, 16 g ai/ha): 5; Plant response rating ([3]; Postemergence, 31 g ai/ha): 10; Plant response rating ([3]; Postemergence, 62 g ai/ha): 10; Plant response rating ([3]; Postemergence, 125 g ai/ha): 20; Plant response rating ([3]; Postemergence, 250 g ai/ha): 25; Plant response rating ([3]; Preemergence, 16 g ai/ha): 5; Plant response rating ([3]; Preemergence, 31 g ai/ha): 10; Plant response rating ([3]; Preemergence, 62 g ai/ha): 25; Plant response rating ([3]; Preemergence, 125 g ai/ha): 85; Plant response rating ([3]; Preemergence, 250 g ai/ha): 80; Plant response rating ([4]; Postemergence, 16 g ai/ha): 10; Plant response rating ([4]; Postemergence, 31 g ai/ha): 10; Plant response rating ([4]; Postemergence, 62 g ai/ha): 10; Plant response rating ([4]; Postemergence, 125 g ai/ha): 20; Plant response rating ([4]; Postemergence, 250 g ai/ha): 20; Plant response rating ([4]; Preemergence, 16 g ai/ha): 0; Plant response rating ([4]; Preemergence, 31 g ai/ha): 0; Plant response rating ([4]; Preemergence, 62 g ai/ha): 0; Plant response rating ([4]; Preemergence, 125 g ai/ha): 0; Plant response rating ([4]; Preemergence, 250 g ai/ha): 0; Plant response rating ([5]; Postemergence, 16 g ai/ha): 60; Plant response rating ([5]; Postemergence, 31 g ai/ha): 70; Plant response rating ([5]; Postemergence, 62 g ai/ha): 65; Plant response rating ([5]; Postemergence, 125 g ai/ha): 100; Plant response rating ([5]; Postemergence, 250 g ai/ha): 100; Plant response rating ([5]; Preemergence, 16 g ai/ha): 85; Plant response rating ([5]; Preemergence, 31 g ai/ha): 95; Plant response rating ([5]; Preemergence, 62 g ai/ha): 100; Plant response rating ([5]; Preemergence, 125 g ai/ha): 95; Plant response rating ([5]; Preemergence, 250 g ai/ha): 100; Plant response rating ([6]; Postemergence, 16 g ai/ha): 60; Plant response rating ([6]; Postemergence, 31 g ai/ha): 60; Plant response rating ([6]; Postemergence, 62 g ai/ha): 60; Plant response rating ([6]; Postemergence, 125 g ai/ha): 65; Plant response rating ([6]; Postemergence, 250 g ai/ha): 75; Plant response rating ([6]; Preemergence, 16 g ai/ha): 0; Plant response rating ([6]; Preemergence, 31 g ai/ha): 0; Plant response rating ([6]; Preemergence, 62 g ai/ha): 0; Plant response rating ([6]; Preemergence, 125 g ai/ha): 5; Plant response rating ([7]; Postemergence, 16 g ai/ha): 65; Plant response rating ([7]; Postemergence, 31 g ai/ha): 60; Plant response rating ([7]; Postemergence, 62 g ai/ha): 65; Plant response rating ([7]; Postemergence, 125 g ai/ha): 75; Plant response rating ([7]; Postemergence, 250 g ai/ha): 95; Plant response rating ([7]; Preemergence, 16 g ai/ha): 30; Plant response rating ([7]; Preemergence, 31 g ai/ha): 35; Plant response rating ([7]; Preemergence, 62 g ai/ha): 40; Plant response rating ([7]; Preemergence, 125 g ai/ha): 100; Plant response rating ([7]; Preemergence, 250 g ai/ha): 100; Plant response rating ([8]; Postemergence, 16 g ai/ha): 60; Plant response rating ([8]; Postemergence, 31 g ai/ha): 60; Plant response rating ([8]; Postemergence, 62 g ai/ha): 70; Plant response rating ([8]; Postemergence, 125 g ai/ha): 75; Plant response rating ([8]; Postemergence, 250 g ai/ha): 75; Plant response rating ([8]; Preemergence, 16 g ai/ha): 35; Plant response rating ([8]; Preemergence, 31 g ai/ha): 95; Plant response rating ([8]; Preemergence, 62 g ai/ha): 75; Plant response rating ([8]; Preemergence, 125 g ai/ha): 100; Plant response rating ([8]; Preemergence, 250 g ai/ha): 100; Plant response rating ([9]; Postemergence, 16 g ai/ha): 5; Plant response rating ([9]; Postemergence, 31 g ai/ha): 10; Plant response rating ([9]; Postemergence, 62 g ai/ha): 15; Plant response rating ([9]; Postemergence, 125 g ai/ha): 15; Plant response rating ([9]; Postemergence, 250 g ai/ha): 15; Plant response rating ([9]; Preemergence, 16 g ai/ha): 0; Plant response rating ([9]; Preemergence, 31 g ai/ha): 0; Plant response rating ([9]; Preemergence, 62 g ai/ha): 0; Plant response rating ([9]; Preemergence, 125 g ai/ha): 10; Plant response rating ([9]; Preemergence, 250 g ai/ha): 15; Plant response rating ([10]; Postemergence, 16 g ai/ha): 5; Plant response rating ([10]; Postemergence, 31 g ai/ha): 10; Plant response rating ([10]; Postemergence, 62 g ai/ha): 15; Plant response rating ([10]; Postemergence, 125 g ai/ha): 15; Plant response rating ([10]; Postemergence, 250 g ai/ha): 15; Plant response rating ([10]; Preemergence, 16 g ai/ha): 0; Plant response rating ([10]; Preemergence, 31 g ai/ha): 5; Plant response rating ([10]; Preemergence, 62 g ai/ha): 5; Plant response rating ([10]; Preemergence, 125 g ai/ha): 5; Plant response rating ([10]; Preemergence, 250 g ai/ha): 10; Plant response rating ([11]; Postemergence, 16 g ai/ha): 5; Plant response rating ([11]; Postemergence, 31 g ai/ha): 5; Plant response rating ([11]; Postemergence, 62 g ai/ha): 10; Plant response rating ([11]; Postemergence, 125 g ai/ha): 10; Plant response rating ([11]; Postemergence, 250 g ai/ha): 60; Plant response rating ([11]; Preemergence, 16 g ai/ha): 10; Plant response rating ([11]; Preemergence, 31 g ai/ha): 5; Plant response rating ([11]; Preemergence, 62 g ai/ha): 5; Plant response rating ([11]; Preemergence, 125 g ai/ha): 35; Plant response rating ([11]; Preemergence, 250 g ai/ha): 65
